Experimental data taken from PubChem BioAssay AID200 (DTP/NCI, 2004).
Values joined by “and” are separate entries in the source; they are usually repeats but may differ in a detail not shown here. Identical values can stand only once. Inconclusive results and toxic doses are left out. Where a SMILES comes first, the peptide text is derived from it. The star is where a group is joined. Cbz = O=C(OCc1ccccc1)*

System: B6C3F1 mice, B16 melanoma ip, median survival T/C
Test: NCI In Vivo Anticancer Drug Screen. Data for tumor model B16 Melanoma (intraperitoneal) in B6C3F1 mice
Conditions: endpoint: median survival time, schedule: Q01DX009 (ip), higher = longer survival
Outline: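 Mice bearing transplanted tumor were dosed with compound or vehicle, and survival was recorded. Activity is expressed as the treated-group measurement (T) divided by the vehicle control measurement (C).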

[1] = dose: 12.5 mg/kg/injection, vehicle: saline + Tween-80 + alcohol
[2] = dose: 25.0 mg/kg/injection, vehicle: saline + Tween-80 + alcohol
[3] = dose: 6.25 mg/kg/injection, vehicle: Klucel (hydroxypropylcellulose) (HPC)
[4] = dose: 12.5 mg/kg/injection, vehicle: Klucel (hydroxypropylcellulose) (HPC)
[5] = dose: 25.0 mg/kg/injection, vehicle: Klucel (hydroxypropylcellulose) (HPC)
[6] = dose: 1.0 mg/kg/injection, vehicle: saline + alcohol
[7] = dose: 12.5 mg/kg/injection, vehicle: saline
[8] = dose: 25.0 mg/kg/injection, vehicle: saline
[9] = dose: 50.0 mg/kg/injection, vehicle: saline
[10] = dose: 100.0 mg/kg/injection, vehicle: saline
[11] = dose: 10.0 mg/kg/injection, vehicle: saline
[12] = dose: 20.0 mg/kg/injection, vehicle: saline
[13] = dose: 50.0 mg/kg/injection, vehicle: Klucel (hydroxypropylcellulose) (HPC)
[14] = dose: 100.0 mg/kg/injection, vehicle: Klucel (hydroxypropylcellulose) (HPC)
[15] = dose: 50.0 mg/kg/injection, vehicle: saline with Tween-80
[16] = dose: 100.0 mg/kg/injection, vehicle: saline with Tween-80
[17] = dose: 200.0 mg/kg/injection, vehicle: Klucel (hydroxypropylcellulose) (HPC)

**Q.** Which T/C (dose: 0.12 mg/kg/injection, vehicle: Klucel (hydroxypropylcellulose) (HPC)) does the source give for `COC1=C(C)C(=O)C2=C(C1=O)C1C3CC4=C(C(=O)C(OC)=C(C)C4=O)C(CNC(=O)C(C)=O)N3C(C#N)C(C2)N1C` (stereo unspecified) here?
**A.** 95 % of control

**Q.** And the T/C (dose: 0.25 mg/kg/injection, vehicle: Klucel (hydroxypropylcellulose) (HPC))?
**A.** 103 % of control and 106 % of control

**Q.** And the T/C (dose: 0.5 mg/kg/injection, vehicle: Klucel (hydroxypropylcellulose) (HPC))?
**A.** 99 % of control and 106 % of control

**Q.** What about the T/C (dose: 1.0 mg/kg/injection, vehicle: Klucel (hydroxypropylcellulose) (HPC)) of the same compound?
**A.** 115 % of control and 103 % of control

**Q.** `CCCCC/C(=C\c1ccccc1)C1OCC(COCC)O1` (stereo unspecified) was tested. Which T/C (dose: 6.25 mg/kg/injection, vehicle: saline + Tween-80 + alcohol) did it give?
**A.** 87 % of control

**Q.** What about the T/C [1] of the same compound?
**A.** 91 % of control

**Q.** What about the T/C [2] of the same compound?
**A.** 94 % of control

**Q.** And the T/C (dose: 50.0 mg/kg/injection, vehicle: saline + Tween-80 + alcohol)?
**A.** 93 % of control

**Q.** How did the T/C [3] turn out when `CC1(C)N=C(N)N=C(N)N1c1cccc(CCCCc2cccc(N)c2)c1` was run?
**A.** 103 % of control

**Q.** And the T/C [4]?
**A.** 108 % of control

**Q.** What about the T/C [5] of the same compound?
**A.** 114 % of control

**Q.** With `CCCC(=O)O.CCCC(=O)O.CCCC(=O)O.CCCC(=O)O.[Rh].[Rh]` as the compound, how does the T/C (dose: 0.03 mg/kg/injection, vehicle: saline + alcohol) read?
**A.** 100 % of control and 101 % of control

**Q.** And the T/C (dose: 0.06 mg/kg/injection, vehicle: saline + alcohol)?
**A.** 103 % of control and 104 % of control

**Q.** What about the T/C (dose: 0.12 mg/kg/injection, vehicle: saline + alcohol) of the same compound?
**A.** 100 % of control and 107 % of control

**Q.** What about the T/C (dose: 0.25 mg/kg/injection, vehicle: saline + alcohol) of the same compound?
**A.** 98 % of control and 101 % of control

**Q.** What about the T/C (dose: 0.5 mg/kg/injection, vehicle: saline + alcohol) of the same compound?
**A.** 101 % of control and 104 % of control

**Q.** And the T/C [6]?
**A.** 108 % of control

**Q.** How did the T/C (dose: 2.0 mg/kg/injection, vehicle: water) turn out when `NCCCN=c1ccc2c3c1c(O)c1c(O)ccc(=O)c1c3[nH]n2CCNCCO` was run?
**A.** 188 % of control

**Q.** What about the T/C (dose: 4.0 mg/kg/injection, vehicle: water) of the same compound?
**A.** 263 % of control

**Q.** And the T/C (dose: 8.0 mg/kg/injection, vehicle: water)?
**A.** 165 % of control

**Q.** Which T/C [7] does the source give for `COc1cc2cc3cc4cc(OC)c(OC)cc4c(C)[n+]3cc2cc1OC` (tested in a mixture with another compound) here?
**A.** 106 % of control

**Q.** And the T/C [8]?
**A.** 100 % of control

**Q.** What about the T/C [9] of the same compound?
**A.** 100 % of control

**Q.** And the T/C [10]?
**A.** 90 % of control

**Q.** `NC1C(O)C(O)C(Nc2ncnc3nc[nH]c23)OC1C(O)CO` (stereo unspecified) was tested. Which T/C [11] did it give?
**A.** 99 % of control

**Q.** And the T/C [12]?
**A.** 96 % of control

**Q.** And the T/C (dose: 40.0 mg/kg/injection, vehicle: saline)?
**A.** 94 % of control

**Q.** What about the T/C (dose: 80.0 mg/kg/injection, vehicle: saline) of the same compound?
**A.** 106 % of control

**Q.** What does the source list for `CCCC(C(=O)OCCN1CCCC12CCCCC2)C1CCCC1` (stereo unspecified)?
**A.** T/C [7]: 105 % of control; T/C [8]: 91 % of control; T/C [9]: 91 % of control

**Q.** What does the source list for `CCc1ccc(C2=C(O)C(=O)C(c3ccccc3)=C(O)C2=O)cc1`?
**A.** T/C (dose: 3.12 mg/kg/injection, vehicle: Klucel (hydroxypropylcellulose) (HPC)): 112 % of control; T/C [3]: 106 % of control; T/C [4]: 108 % of control; T/C [5]: 114 % of control; T/C [13]: 114 % of control; T/C [14]: 108 % of control

**Q.** Which results are given for `COC1CC(C)C(OC)C2=CC(=O)C=C(NC(=O)/C(C)=C/C=C\C(C)C(OC(N)=O)/C(C)=C\C(C)C1OC)C2=O` (stereo unspecified)?
**A.** T/C (dose: 2.5 mg/kg/injection, vehicle: saline + alcohol): 176 % of control; T/C (dose: 5.0 mg/kg/injection, vehicle: saline + alcohol): 155 % of control; T/C (dose: 10.0 mg/kg/injection, vehicle: saline + alcohol): 174 % of control

**Q.** How did the T/C [6] turn out when `CCC(C)C(=O)O[C@H]1C(=O)O[C@@H]2C[C@H]3C(C)=CC(=O)[C@@H](O)[C@]3(C)[C@H]3[C@@H](O)[C@H](O)[C@@]4(C)OC[C@]32[C@@H]14` (stereo partly specified) was run?
**A.** 160 % of control

**Q.** For `COc1ccc(C(=O)C(CN(C)C)CN(C)C)cc1`, which T/C (dose: 1.56 mg/kg/injection, vehicle: saline) is on record?
**A.** 92 % of control

**Q.** And the T/C (dose: 3.12 mg/kg/injection, vehicle: saline)?
**A.** 96 % of control

**Q.** What about the T/C (dose: 6.25 mg/kg/injection, vehicle: saline) of the same compound?
**A.** 94 % of control

**Q.** And the T/C [7]?
**A.** 97 % of control

**Q.** And the T/C [8]?
**A.** 102 % of control

**Q.** `CC(C)(C)OC(=O)NCC(=O)ON1C(=O)CCC1=O` was tested. Which T/C [15] did it give?
**A.** 100 % of control

**Q.** What about the T/C [16] of the same compound?
**A.** 91 % of control

**Q.** What does the source list for `Cc1c2ccc3ccccc3c2c[n+]2ccccc12`?
**A.** T/C (dose: 1.25 mg/kg/injection, vehicle: Klucel (hydroxypropylcellulose) (HPC)): 104 % of control; T/C (dose: 2.5 mg/kg/injection, vehicle: Klucel (hydroxypropylcellulose) (HPC)): 100 % of control; T/C (dose: 5.0 mg/kg/injection, vehicle: Klucel (hydroxypropylcellulose) (HPC)): 112 % of control; T/C (dose: 10.0 mg/kg/injection, vehicle: Klucel (hydroxypropylcellulose) (HPC)): 96 % of control; T/C (dose: 20.0 mg/kg/injection, vehicle: Klucel (hydroxypropylcellulose) (HPC)): 100 % of control

**Q.** How did the T/C [8] turn out when `N=C1CCCS1` was run?
**A.** 109 % of control

**Q.** And the T/C [9]?
**A.** 120 % of control

**Q.** What does the source list for `CNC(=S)C#N`?
**A.** T/C [1]: 119 % of control; T/C [2]: 86 % of control

**Q.** Which T/C [4] does the source give for `COc1ccc2ccccc2c1C1NC(=O)c2ccccc2N1` (stereo unspecified) here?
**A.** 96 % of control

**Q.** What about the T/C [5] of the same compound?
**A.** 100 % of control

**Q.** And the T/C [13]?
**A.** 96 % of control

**Q.** What about the T/C [14] of the same compound?
**A.** 100 % of control

**Q.** And the T/C [17]?
**A.** 104 % of control

**Q.** What about the T/C (dose: 400.0 mg/kg/injection, vehicle: Klucel (hydroxypropylcellulose) (HPC)) of the same compound?
**A.** 102 % of control

**Q.** For `CC(/C=N/N=C(N)N)=N\N=C(N)N`, which T/C [8] is on record?
**A.** 110 % of control

**Q.** And the T/C [9]?
**A.** 111 % of control

**Q.** And the T/C [10]?
**A.** 95 % of control

**Q.** Which results are given for `C=CCSc1ncnc2c1ncn2C1OC(CO)C(O)C1O` (stereo unspecified)?
**A.** T/C (dose: 37.5 mg/kg/injection, vehicle: saline with Tween-80): 102 % of control; T/C (dose: 75.0 mg/kg/injection, vehicle: saline with Tween-80): 90 % of control; T/C (dose: 150.0 mg/kg/injection, vehicle: saline with Tween-80): 97 % of control

**Q.** What does the source list for `Nc1ncnc2c1ncn2C1OC(COP(=O)(O)OC2C(O)C(COP(=O)(O)OC3C(O)C(COP(=O)(O)OP(=O)(O)OP(=O)(O)O)OC3n3cnc4c(N)ncnc43)OC2n2cnc3c(N)ncnc32)C(O)C1O` (stereo unspecified)?
**A.** T/C (dose: 0.12 mg/kg/injection, vehicle: distilled water + Tween-80 + alcohol): 88 % of control; T/C (dose: 0.25 mg/kg/injection, vehicle: distilled water + Tween-80 + alcohol): 91 % of control; T/C (dose: 0.5 mg/kg/injection, vehicle: distilled water + Tween-80 + alcohol): 94 % of control; T/C (dose: 1.0 mg/kg/injection, vehicle: distilled water + Tween-80 + alcohol): 98 % of control

**Q.** What does the source list for `O=C(Nc1cccc(Cl)c1)C1CCCC1=Nc1cccc(Cl)c1` (stereo unspecified)?
**A.** T/C [15]: 99 % of control; T/C [16]: 96 % of control; T/C (dose: 200.0 mg/kg/injection, vehicle: saline with Tween-80): 91 % of control

**Q.** How did the T/C (dose: 200.0 mg/kg/injection, vehicle: saline) turn out when `C[C@@H]1CN(C(=O)CCOS(C)(=O)=O)[C@@H](C)CN1C(=O)CCOS(C)(=O)=O` was run?
**A.** 172 % of control

**Q.** With `CSc1cc(C)[o+]c(C)c1` as the compound, how does the T/C [4] read?
**A.** 106 % of control

**Q.** And the T/C [5]?
**A.** 105 % of control

**Q.** What about the T/C [13] of the same compound?
**A.** 106 % of control

**Q.** And the T/C [14]?
**A.** 109 % of control

**Q.** What about the T/C [17] of the same compound?
**A.** 101 % of control

**Q.** For `O=C1C=C(Nc2ccc(O)cc2)c2ccccc2C1=O`, which T/C (dose: 5.0 mg/kg/injection, vehicle: saline) is on record?
**A.** 102 % of control

**Q.** And the T/C [11]?
**A.** 98 % of control

**Q.** What about the T/C [12] of the same compound?
**A.** 93 % of control

**Q.** How did the T/C [17] turn out when `CCOC(=O)C(Cc1c[nH]c2ccccc12)NC(=O)C(Cc1ccccc1)NC(=O)C(Cc1cnc[nH]1)NC(=O)OCc1ccccc1` (stereo not drawn) (Cbz-His-Phe-Trp-OEt; configuration not given here) was run?
**A.** 90 % of control
